Assay results published in PubChem BioAssay (NCI).
“And” between values parts separate entries of the source, which are not always exact repeats. Identical values can stand only once.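 Test compounds were applied to cells in 96-well plates for 48 hours at 5 doses. GI50 marks 50% less growth. TGI: concentration producing complete growth inhibition.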

System: M14 melanoma
Assay: growth of human tumour cells (NCI), 48 h

Row | SMILES | GI50 | TGI
1 | O=[N+]([O-])c1ccc(CI)cc1 | 3.38 µM | 13.5 µM
2 | Cn1cnnc1Sc1c([N+](=O)[O-])ncn1C | – | > 100 µM
3 | C=CCC1(CN(C)C)CC/C(=C\c2ccc(Cl)cc2)C1=O (configuration not stated) | – | > 64.9 µM
4 | COc1ccc(-c2cc(/C=C/C(=O)c3ccc(OC)c(OC)c3)[nH]n2)cc1 | 2.17 µM | 4.97 µM
5 | C[Si](C)(C)/C(I)=C/CO | – | > 100 µM
6 | C[N+](C)(C)CC1CCC/C1=N\OC(=O)c1ccccc1 (configuration not stated) | – | > 100 µM
7 | CC(=O)N1CCC(=O)/C(=C/c2ccccc2)C1 | – | > 100 µM
8 | CCCCCCCN=C(N)c1ccc(N2CCN(c3ccc(C(N)=NCCCCCCC)cc3)CC2)cc1 | 7.29 µM | > 100 µM
9 | C[Si](C)(C)/C(Br)=C\CCN1C(=O)CCC1=O | – | > 100 µM
10 | Cc1ccc(S(=O)OCc2c(C)c(C)c(COS(=O)c3ccc(C)cc3)c(C)c2C)cc1 (configuration not stated) | – | > 100 µM
11 | C[C@]12CCC(=O)C=C1CC[C@@H]1C2CC[C@]2(C)Nc3[nH]ncc3CC12 (some centres not stated) | – | > 100 µM
12 | COc1ccc2c(c1)c[n+](C)c1c3cc(OC)c(OC)cc3ccc21 | 1.41 µM and 4.48 µM | 3.05 µM and 14.3 µM
13 | CSc1ccccc1C#C/C=C\C#Cc1ccccc1N | 5.85 µM | 20.1 µM
14 | COc1ccc(/C(=C\C=C(C#N)C#N)Sc2nc3ccccc3s2)cc1 | 2.52 µM | 9.08 µM
15 | CC(C)(C)[Si](C)(C)OC1C(=O)C[C@H]2CCCC[C@@H]12 (some centres not stated) | – | > 100 µM
16 | CCN(CC)CCSc1c2ccccc2nc2c(OC)ccc(OC)c12 | – | 15.4 µM
17 | CCOC(=O)c1ccc(N=Nc2cc(C(=O)OCC)ccc2O)cc1 | – | > 100 µM
18 | [N-]=[N+]=N/C1=C/CCCCC(=O)C1 | – | > 100 µM
19 | Cc1ccc(NC(=O)CCc2nnc(N)o2)cc1 | – | > 100 µM
20 | O=C1CCC(=O)c2c1c(O)c1ccncc1c2O | – | 28.9 µM
21 | C=CCN1CCC23c4c5ccc(O)c4OC2C(=NN=C2CCC4(O)C6Cc7ccc(O)c8c7C4(CCN6CC=C)C2O8)CCC3(O)C1C5 (configuration not stated) | – | 32 µM
22 | CN(C)CCNC(=O)c1cccc2c(Nc3ccc(S(=O)(=O)N=C(N)N)cc3)c3ccccc3nc12 | – | > 100 µM
23 | COC(=O)C1=C(C(=O)OC)C2=S(SC3=C2CCCC3)S1 (configuration not stated) | – | > 100 µM
24 | CC1(C)CC(=O)CC(=Nc2ccc([N+](=O)[O-])cc2)C1 | – | > 100 µM
25 | Cc1nc2cc(Nc3nc(Nc4ccc(F)cc4)nc(-c4cccs4)n3)ccc2n1Cc1ccccc1 | 5.42 µM | 24.6 µM
26 | Cn1cc(-c2csc(-c3c[nH]c4ccc(Br)cc34)n2)c2cnccc21 | 1.87 µM | 3.61 µM
27 | CCOC(=O)c1c(-c2ccc(OC)cc2)c(C#N)c2c(C#N)c(N)nn2c1N | 3.26 µM | 25.9 µM

System: OVCAR-8 ovarian
Assay: growth of human tumour cells (NCI), 48 h

Row | SMILES | GI50 | TGI
28 | Cn1c(Nc2ccc(C(F)(F)F)cc2)nc2cc(Oc3ccnc(-c4ncc(C(F)(F)F)[nH]4)c3)ccc21 | 0.775 µM | 14.1 µM
29 | COc1ccc(-c2nsc3c2NC(=O)CC3c2cccc(OC)c2)cc1 (configuration not stated) | 3.22 µM | > 100 µM
30 | C[C@@]12CCC[C@@](C)(C(=O)O)C1CC[C@]13CC(=O)[C@](CO)(C1)[C@@H](O)CC32 (some centres not stated) | > 100 µM | > 100 µM
31 | O=[N+]([O-])c1ccc(CI)cc1 | 3.71 µM | 13.3 µM
32 | Cn1cnnc1Sc1c([N+](=O)[O-])ncn1C | – | > 100 µM
33 | C=CCC1(CN(C)C)CC/C(=C\c2ccc(Cl)cc2)C1=O (configuration not stated) | – | > 100 µM
34 | COc1ccc(-c2cc(/C=C/C(=O)c3ccc(OC)c(OC)c3)[nH]n2)cc1 | 2.16 µM | 10.4 µM
35 | C[Si](C)(C)/C(I)=C/CO | – | 86.5 µM
36 | C[N+](C)(C)CC1CCC/C1=N\OC(=O)c1ccccc1 (configuration not stated) | – | > 100 µM
37 | CC(=O)N1CCC(=O)/C(=C/c2ccccc2)C1 | – | 99.3 µM
38 | CCCCCCCN=C(N)c1ccc(N2CCN(c3ccc(C(N)=NCCCCCCC)cc3)CC2)cc1 | 0.376 µM | 7.34 µM
39 | C[Si](C)(C)/C(Br)=C\CCN1C(=O)CCC1=O | – | > 100 µM
40 | Cc1ccc(S(=O)OCc2c(C)c(C)c(COS(=O)c3ccc(C)cc3)c(C)c2C)cc1 (configuration not stated) | – | > 100 µM
41 | C[C@]12CCC(=O)C=C1CC[C@@H]1C2CC[C@]2(C)Nc3[nH]ncc3CC12 (some centres not stated) | – | > 100 µM
42 | COc1ccc2c(c1)c[n+](C)c1c3cc(OC)c(OC)cc3ccc21 | – | 4.61 µM and 6.34 µM
